Experimental data from US3982931A, “N,N-di-sec.butyl-benzamide herbicides” (priority 1967, dated 1976).

Assays:
Type in all cases: in vivo
Digitaria sanguinalis L. = experiment: herbicidal activity of PA 106 against infesting herbs
Source text: (§1) Method of evaluation of the results (of tests):
(§2) 0 = no activity and no difference with respect to the control;
(§3) 1 slight differences with respect to the control;
(§4) 3 = considerable activity with damages that definitely impair the further development of most of the small plants; an activity degree already useful for practical purposes;
(§5) 4 = maximum of activity with lack of germination or total containment of the small plants in the emerging stage.
(§6) In the case of an intermediate activity between two classes of the scale, both values are recorded with the one which corresponds to the preeminent activity preceding.
(§7) TABLE 3 reports data on the herbicidal activity against infesting herbs, while TABLE 4 reports data concerning the activity on useful species of agricultural cultivations. These tables employ the criterion explained previously. The product was spread on the soil one day after sowing, in quantities of 1, 3, 6, 8, 10, 12 and 14 kg/ha.

[1] = tested on: Panichum Dichotomi florum M.; experiment: as above
Source text: as §1, §2, §3, §4, §5, §6, §7

Papmer rhoeas L. = experiment: as above
Source text: as §1, §2, §3, §4, §5, §6, §7

Portulaca oleracea L. = experiment: as above
Source text: as §1, §2, §3, §4, §5, §6, §7

Sorghum sp. = experiment: as above
Source text: as §1, §2, §3, §4, §5, §6, §7

Brassica napus L. colza = experiment: activity of PA 106 on useful species
Source text: as §1, §2, §3, §4, §5, §6, §7

[2] = tested on: Brassica oleracea, L. (cabbage); experiment: activity of PA 106 on useful species
Source text: as §1, §2, §3, §4, §5, §6, §7

[3] = tested on: Hordeum vulgare L. (barley); experiment: activity of PA 106 on useful species
Source text: as §1, §2, §3, §4, §5, §6, §7

Soja Hispida L. (soya) = experiment: activity of PA 106 on useful species
Source text: as §1, §2, §3, §4, §5, §6, §7

Gladiolus sp. = experiment: activity of PA 106 on useful species (treatment after unearthing the tubers)
Source text: as §1, §2, §3, §4, §5, §6, §7
In the case of gladiolus, the treatment was carried out after unearthing the tubers.

Echinocloa crus-galli = experiment: Example 3 rice field test, granular composition; details: 6 kg of PA 106 per hectar
Method: (§8) In this test a granular composition of PA 106 containing 5% of active principle and 95% of bentonite was used. The treatment was carried out in a rice field with areas of from 900 to 1000 sq.m on naked soil flooded just shortly before the sowing of the rice. There were used doses of granulate equal to 4, 6, 8 and 10 kg of active substance per hectar of surface.

rice = experiment: Example 3 rice field test, granular composition; details: 4, 6, 8 and 10 kg/ha
Method: as §8

CCC(C)N(C(=O)c1ccc(Cl)c(Cl)c1)C(C)CC (stereo not drawn) [PA106, 3,4-dichloro-N,N-di-sec.butyl-benzamide]
herbicidal activity, Table 3 (Digitaria sanguinalis L.; 1 kg/ha): 2/3 | herbicidal activity, Table 3 (Digitaria sanguinalis L.; 3 kg/ha): 4/3 | herbicidal activity, Table 3 (Digitaria sanguinalis L.; 6 kg/ha): 4 | herbicidal activity, Table 3 (Digitaria sanguinalis L.; 8 kg/ha): 4 | herbicidal activity, Table 3 (Digitaria sanguinalis L.; 10 kg/ha): 4 | herbicidal activity, Table 3 (Digitaria sanguinalis L.; 12 kg/ha): 4 | herbicidal activity, Table 3 (Digitaria sanguinalis L.; 14 kg/ha): 4 | herbicidal activity, Table 3 ([1]; 1 kg/ha): 2 | herbicidal activity, Table 3 ([1]; 3 kg/ha): 5/4 | herbicidal activity, Table 3 ([1]; 6 kg/ha): 4 | herbicidal activity, Table 3 ([1]; 8 kg/ha): 4 | herbicidal activity, Table 3 ([1]; 10 kg/ha): 4 | herbicidal activity, Table 3 ([1]; 12 kg/ha): 4 | herbicidal activity, Table 3 ([1]; 14 kg/ha): 4 | herbicidal activity, Table 3 (Papmer rhoeas L.; 1 kg/ha): 0 | herbicidal activity, Table 3 (Papmer rhoeas L.; 3 kg/ha): 1 | herbicidal activity, Table 3 (Papmer rhoeas L.; 6 kg/ha): 2 | herbicidal activity, Table 3 (Papmer rhoeas L.; 8 kg/ha): 3 | herbicidal activity, Table 3 (Papmer rhoeas L.; 10 kg/ha): 4 | herbicidal activity, Table 3 (Papmer rhoeas L.; 12 kg/ha): 4 | herbicidal activity, Table 3 (Papmer rhoeas L.; 14 kg/ha): 4 | herbicidal activity, Table 3 (Portulaca oleracea L.; 1 kg/ha): 0 | herbicidal activity, Table 3 (Portulaca oleracea L.; 3 kg/ha): 1/2 | herbicidal activity, Table 3 (Portulaca oleracea L.; 6 kg/ha): 3 | herbicidal activity, Table 3 (Portulaca oleracea L.; 8 kg/ha): 3/4 | herbicidal activity, Table 3 (Portulaca oleracea L.; 10 kg/ha): 4 | herbicidal activity, Table 3 (Portulaca oleracea L.; 12 kg/ha): 4 | herbicidal activity, Table 3 (Portulaca oleracea L.; 14 kg/ha): 4 | herbicidal activity, Table 3 (Sorghum sp.; 1 kg/ha): 1 | herbicidal activity, Table 3 (Sorghum sp.; 3 kg/ha): 3 | herbicidal activity, Table 3 (Sorghum sp.; 6 kg/ha): 4 | herbicidal activity, Table 3 (Sorghum sp.; 8 kg/ha): 4 | herbicidal activity, Table 3 (Sorghum sp.; 10 kg/ha): 4 | herbicidal activity, Table 3 (Sorghum sp.; 12 kg/ha): 4 | herbicidal activity, Table 3 (Sorghum sp.; 14 kg/ha): 4 | activity on useful species, Table 4 (Brassica napus L. colza; 1 kg/ha): 0 | activity on useful species, Table 4 (Brassica napus L. colza; 3 kg/ha): 0 | activity on useful species, Table 4 (Brassica napus L. colza; 6 kg/ha): 1 | activity on useful species, Table 4 (Brassica napus L. colza; 8 kg/ha): 1/2 | activity on useful species, Table 4 (Brassica napus L. colza; 10 kg/ha): 2/3 | activity on useful species, Table 4 (Brassica napus L. colza; 12 kg/ha): 3 | activity on useful species, Table 4 (Brassica napus L. colza; 14 kg/ha): 3 | activity on useful species, Table 4 ([2]; 1 kg/ha): 0 | activity on useful species, Table 4 ([2]; 3 kg/ha): 0 | activity on useful species, Table 4 ([2]; 6 kg/ha): 0/1 | activity on useful species, Table 4 ([2]; 8 kg/ha): 1 | activity on useful species, Table 4 ([2]; 10 kg/ha): 1/2 | activity on useful species, Table 4 ([2]; 12 kg/ha): 1/2 | activity on useful species, Table 4 ([2]; 14 kg/ha): 2 | activity on useful species, Table 4 ([3]; 1 kg/ha): 0 | activity on useful species, Table 4 ([3]; 3 kg/ha): 0 | activity on useful species, Table 4 ([3]; 6 kg/ha): 0 | activity on useful species, Table 4 ([3]; 8 kg/ha): 0 | activity on useful species, Table 4 ([3]; 10 kg/ha): 0/1 | activity on useful species, Table 4 ([3]; 12 kg/ha): 0/1 | activity on useful species, Table 4 ([3]; 14 kg/ha): 0/1 | activity on useful species, Table 4 (Soja Hispida L. (soya); 1 kg/ha): 0 | activity on useful species, Table 4 (Soja Hispida L. (soya); 3 kg/ha): 0 | activity on useful species, Table 4 (Soja Hispida L. (soya); 6 kg/ha): 0 | activity on useful species, Table 4 (Soja Hispida L. (soya); 8 kg/ha): 0 | activity on useful species, Table 4 (Soja Hispida L. (soya); 10 kg/ha): 0/1 | activity on useful species, Table 4 (Soja Hispida L. (soya); 12 kg/ha): 0/1 | activity on useful species, Table 4 (Soja Hispida L. (soya); 14 kg/ha): 0/1 | activity on useful species, Table 4 (Gladiolus sp.; 1 kg/ha): 0 | activity on useful species, Table 4 (Gladiolus sp.; 3 kg/ha): 0 | activity on useful species, Table 4 (Gladiolus sp.; 6 kg/ha): 0 | activity on useful species, Table 4 (Gladiolus sp.; 8 kg/ha): 0 | activity on useful species, Table 4 (Gladiolus sp.; 10 kg/ha): 0 | activity on useful species, Table 4 (Gladiolus sp.; 12 kg/ha): 0 | activity on useful species, Table 4 (Gladiolus sp.; 14 kg/ha): 0 | inhibition of growth of the infestant (Echinocloa crus-galli): for all practical purposes be considered as total | damage to rice (rice): without suffering any damage
